Target: T1, chimeric human H3 receptor (Homo sapiens, UniProt Q9Y5N1)
T1 construct: made in house; host or cells: Sf9 insect cells (baculovirus); P2 membrane preparation
Assay: Chimeric human H3 receptor GTP binding assay (Example 7)
Type: biochemical
Conditions: agonist (1 μM histamine)-stimulated GTP-gamma35S binding, P2 membranes of Sf9 cells; Ki from IC50 by Cheng-Prusoff
Source text: This Example illustrates a representative assay for evaluating agonist-stimulated GTP-gamma^35S binding (“GTP binding”) activity. […] This agonist-stimulated GTP binding activity can also be used to detect partial agonism mediated by antagonist compounds. A compound analyzed in this assay is referred to herein as a “test compound.”
Four independent baculoviral stocks (one directing the expression of the chimeric human H3 receptor and three directing the expression of each of the three subunits of a heterotrimeric G-protein) are used to infect a culture of Sf9 cells as described above. P2 membranes are prepared as described above, and agonist-stimulated GTP binding on the P2 membranes is assessed using histamine (Sigma Chemical Co., St. Louis, Mo.) as agonist in order to ascertain that the receptor/G-protein-alpha-beta-gamma combination(s) yield a functional response as measured by GTP binding. P2 membranes are resuspended by Dounce homogenization (tight pestle) in GTP binding assay buffer (50 mM Tris pH 7.4, 120 mM NaCl, 5 mM MgCl2, 2 mM EGTA, 1 mg/ml BSA, 0.2 mg/ml bacitracin, 0.02 mg/ml aprotinin, 0.01 mg/ml saponin, 10 μM GDP) and added to assay tubes at a concentration of 35 μg protein/reaction tube. After adding increasing doses of histamine at concentrations ranging from 10^−12 M to 10^−5 M, reactions are initiated by the addition of 125 pM GTP-gamma^35S (PERKIN ELMER; Boston, Mass.) with a final assay volume of 0.20 ml. In competition experiments, non-radiolabeled test compounds are added to separate reactions at concentrations ranging from 10^−10 M to 10^−6M along with 1 μM histamine to yield a final volume of 0.20 ml.
Neutral antagonists are antagonists that are substantially free of inherent agonist activity, and include those test compounds that reduce the histamine-stimulated GTP binding activity towards, but not below, baseline levels. In contrast, in the absence of added histamine, inverse agonists reduce the GTP binding activity of the receptor-containing membranes below baseline.
After a 60-min incubation at room temperature, reactions are terminated by vacuum filtration over WHATMAN GF/C filters (pre-soaked in wash buffer, 0.1% BSA) followed by washing with ice-cold wash buffer (50 mM Tris pH 7.4, 120 mM NaCl). The amount of receptor-bound (and thereby membrane-bound) GTE-gamma^35S is determined by measuring the filter-bound radioactivity, preferably by liquid scintillation spectrometry of the washed filters. Non-specific binding is determined in parallel assays including 10 μM unlabeled GTP-gammaS and typically represents less than 5 percent of total binding. Data is expressed as percent above basal (baseline). The results of GTP binding experiments are analyzed using SIGMAPLOT software (SPSS Inc., Chicago, Ill.). IC50 values are calculated by non-linear regression analysis of dose-response curves using Kaleidograph (Synergy Software, Reading, Pa.).
Alternatively the data is analyzed as follows. First, the average bound radioactivity from negative control wells (no agonist) is subtracted from the bound radioactivity detected for each of the other experimental wells. Second, average bound radioactivity is calculated for the positive control wells (agonist wells). Then, percent inhibition for each compound tested is calculated using the equation:
Calculated IC50 values are converted to Ki values by the Cheng-Prusoff correction (Cheng and Prusoff (1973) Biochem. Pharmacol. 22(23):3099-3108). Accordingly, the following equation: Ki=IC50/(1+[L]/EC50) is used, where [L] is the histamine concentration in the GTP binding assay, and EC50 is the concentration of histamine producing a 50% response, as determined by a dose-response analysis using concentrations of histamine ranging from 10^−10 M to 10^−6M. […]

T1 sequence (Q9Y5N1 with tags, fused parts or gaps): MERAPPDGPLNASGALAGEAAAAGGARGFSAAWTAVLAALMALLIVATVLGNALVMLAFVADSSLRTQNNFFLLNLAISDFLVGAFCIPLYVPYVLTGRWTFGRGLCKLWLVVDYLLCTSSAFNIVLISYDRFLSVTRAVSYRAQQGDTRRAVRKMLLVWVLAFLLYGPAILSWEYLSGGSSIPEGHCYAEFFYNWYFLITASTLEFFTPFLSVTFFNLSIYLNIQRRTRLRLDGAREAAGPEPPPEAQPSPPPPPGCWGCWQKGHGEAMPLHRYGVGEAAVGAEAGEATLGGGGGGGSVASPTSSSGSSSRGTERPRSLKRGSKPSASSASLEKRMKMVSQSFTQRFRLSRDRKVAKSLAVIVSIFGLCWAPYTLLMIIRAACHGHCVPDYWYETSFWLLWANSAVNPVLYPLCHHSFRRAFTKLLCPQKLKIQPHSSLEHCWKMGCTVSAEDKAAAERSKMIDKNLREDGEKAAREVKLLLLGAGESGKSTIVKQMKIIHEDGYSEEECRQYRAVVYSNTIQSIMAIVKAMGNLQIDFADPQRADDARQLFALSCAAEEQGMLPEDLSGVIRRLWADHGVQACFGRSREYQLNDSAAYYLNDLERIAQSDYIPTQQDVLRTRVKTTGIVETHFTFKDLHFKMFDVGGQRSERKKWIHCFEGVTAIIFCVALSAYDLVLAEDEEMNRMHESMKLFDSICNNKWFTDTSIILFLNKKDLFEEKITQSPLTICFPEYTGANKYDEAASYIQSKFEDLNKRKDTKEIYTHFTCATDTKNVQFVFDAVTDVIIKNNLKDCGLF

Ki, < 1000 nM:
COc1ccc2[nH]c3c(c2c1)CCN(CC(=O)N1CCN(C2CCC2)CC1)C3 [Compound 18, 2-[2-(4-Cyclobutylpiperazin-1-yl)-2-oxoethyl]-6-methoxy-2,3,4,9-tetrahydro-1H-beta-carboline]
COc1ccc2c(c1)c1c(n2C)CN(CC(=O)N2CCN(C3CCC3)CC2)CC1 [Compound 19, 2-[2-(4-Cyclobutylpiperazin-1-yl)-2-oxoethyl]-6-methoxy-9-methyl-2,3,4,9-tetrahydro-1H-beta-carboline]
Cc1ccc2[nH]c3c(c2c1)CCN(CC(=O)N1CCN(C2CCC2)CC1)C3 [Compound 20, 2-[2-(4-Cyclobutylpiperazin-1-yl)-2-oxoethyl]-6-methyl-2,3,4,9-tetrahydro-1H-beta-carboline]
O=C(CN1CCc2c([nH]c3ccc(F)cc23)C1)N1CCN(C2CCC2)CC1 [Compound 21, 2-[2-(4-Cyclobutylpiperazin-1-yl)-2-oxoethyl]-6-fluoro-2,3,4,9-tetrahydro-1H-beta-carboline]
O=C(CN1CCc2c([nH]c3ccc(Br)cc23)C1)N1CCN(C2CCC2)CC1 [Compound 22, 6-Bromo-2-[2-(4-cyclobutylpiperazin-1-yl)-2-oxoethyl]-2,3,4,9-tetrahydro-1H-beta-carboline]
Cn1c2c(c3cc(F)ccc31)CCN(CC(=O)N1CCN(C3CCC3)CC1)C2 [Compound 23, 2-[2-(4-Cyclobutylpiperazin-1-yl)-2-oxoethyl]-6-fluoro-9-methyl-2,3,4,9-tetrahydro-1H-beta-carboline]
O=C(CN1CCc2c([nH]c3cc(F)ccc23)C1)N1CCN(C2CCC2)CC1 [Compound 24, 2-[2-(4-Cyclobutylpiperazin-1-yl)-2-oxoethyl]-7-fluoro-2,3,4,9-tetrahydro-1H-beta-carboline]
O=C(CN1CCc2c([nH]c3c(F)cccc23)C1)N1CCN(C2CCC2)CC1 [Compound 25, 2-[2-(4-Cyclobutylpiperazin-1-yl)-2-oxoethyl]-8-fluoro-2,3,4,9-tetrahydro-1H-beta-carboline]
O=C(CN1CCc2c([nH]c3cccc(F)c23)C1)N1CCN(C2CCC2)CC1 [Compound 26, 2-[2-(4-Cyclobutylpiperazin-1-yl)-2-oxoethyl]-5-fluoro-2,3,4,9-tetrahydro-1H-beta-carboline]
O=C(CN1CCc2c([nH]c3cc(-c4cncnc4)ccc23)C1)N1CCN(C2CCC2)CC1 [Compound 27, 2-[2-(4-Cyclobutylpiperazin-1-yl)-2-oxoethyl]-7-pyrimidin-5-yl-2,3,4,9-tetrahydro-1H-beta-carboline]
CCn1c2c(c3ccccc31)CCN(CC(=O)N1CCN(C3CCC3)CC1)C2 [Compound 28, 2-[2-(4-Cyclobutylpiperazin-1-yl)-2-oxoethyl]-9-ethyl-2,3,4,9-tetrahydro-1H-beta-carboline]
CCCn1c2c(c3ccccc31)CCN(CC(=O)N1CCN(C3CCC3)CC1)C2 [Compound 29, 2-[2-(4-Cyclobutylpiperazin-1-yl)-2-oxoethyl]-9-propyl-2,3,4,9-tetrahydro-1H-beta-carboline]
CC(C)n1c2c(c3ccccc31)CCN(CC(=O)N1CCN(C3CCC3)CC1)C2 [Compound 30, 2-[2-(4-Cyclobutylpiperazin-1-yl)-2-oxoethyl]-9-isopropyl-2,3,4,9-tetrahydro-1H-beta-carboline]
O=C(CN1CCc2c(n(CC(F)(F)F)c3ccccc23)C1)N1CCN(C2CCC2)CC1 [Compound 31, 2-[2-(4-Cyclobutylpiperazin-1-yl)-2-oxoethyl]-9-(2,2,2-trifluoroethyl)-2,3,4,9-tetrahydro-1H-beta-carboline]
O=C(CN1CCc2c([nH]c3ccccc23)C1)N1CCN2CCCCC2C1 (stereo not drawn) [Compound 32, 2-[2-(Octahydro-2H-pyrido[1,2-a]pyrazin-2-yl)-2-oxoethyl]-2,3,4,9-tetrahydro-1H-beta-carboline]
CC1CCCC2CN(C(=O)CN3CCc4c([nH]c5ccccc45)C3)CCN12 (stereo not drawn) [Compound 33, 2-[2-(6-Methyloctahydro-2H-pyrido[1,2-a]pyrazin-2-yl)-2-oxoethyl]-2,3,4,9-tetrahydro-1571H-beta-carboline]

Source: patent US20110002855A1 (NEUROGEN CORPORATION, priority 2007, published 2011)
